Results: US10406207B2, “Peptide conjugates of GLP-1 receptor agonists and gastrin and their use” (priority 2010, dated 2019)
pEC50: −log10 of the molar value. Read-outs that look alike come from different tables or passages of the source. Square brackets hold non-standard residues; d marks the D form. Peptide text beside a SMILES is read from it. AEEA = NCCOCCOCC(=O)O

Experiments:
human GLP-1 R = biological target: T1, human GLP-1 R (Homo sapiens, UniProt P43220); experiment: Human GLP-1 receptor efficacy assay (cAMP induction, FlashPlate); format: cell-based; details: read-out: hGLP-1 R EC50
T1 construct: expressed in transfected cells
T1 sequence (P43220 24-463): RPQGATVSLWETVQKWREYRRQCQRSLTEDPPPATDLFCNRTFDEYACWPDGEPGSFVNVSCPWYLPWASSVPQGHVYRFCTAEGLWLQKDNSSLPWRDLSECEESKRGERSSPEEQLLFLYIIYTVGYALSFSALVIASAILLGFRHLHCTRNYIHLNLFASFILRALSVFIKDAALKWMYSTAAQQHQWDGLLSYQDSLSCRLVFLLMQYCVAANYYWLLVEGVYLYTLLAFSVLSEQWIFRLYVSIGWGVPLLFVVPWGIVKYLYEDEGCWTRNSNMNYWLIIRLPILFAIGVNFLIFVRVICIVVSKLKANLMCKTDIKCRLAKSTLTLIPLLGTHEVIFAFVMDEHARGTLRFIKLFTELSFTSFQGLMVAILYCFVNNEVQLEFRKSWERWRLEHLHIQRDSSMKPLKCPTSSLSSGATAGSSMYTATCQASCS
Experimental: On the day of analysis, growth medium was removed and the cells were washed once with 200 μl Tyrode buffer [Tyrode's Salts (9.6 g/l), 10 mM HEPES, pH 7.4]. […] The reaction was stopped by addition of 25 μl 0.5 M HCl and incubated on ice for 60 min.

mouse CCK-B R = biological target: T2, mouse CCK-B R (Mus musculus, UniProt P56481); experiment: Mouse CCK-B receptor efficacy assay (AlphaScreen SureFire p-ERK); format: cell-based; details: Table 1; HEK293 cells expressing mouse CCK-B R, p-ERK; read-out: mCCK-B R EC50
T2 construct: expressed in transfected cells
T2 sequence (P56481 1-453): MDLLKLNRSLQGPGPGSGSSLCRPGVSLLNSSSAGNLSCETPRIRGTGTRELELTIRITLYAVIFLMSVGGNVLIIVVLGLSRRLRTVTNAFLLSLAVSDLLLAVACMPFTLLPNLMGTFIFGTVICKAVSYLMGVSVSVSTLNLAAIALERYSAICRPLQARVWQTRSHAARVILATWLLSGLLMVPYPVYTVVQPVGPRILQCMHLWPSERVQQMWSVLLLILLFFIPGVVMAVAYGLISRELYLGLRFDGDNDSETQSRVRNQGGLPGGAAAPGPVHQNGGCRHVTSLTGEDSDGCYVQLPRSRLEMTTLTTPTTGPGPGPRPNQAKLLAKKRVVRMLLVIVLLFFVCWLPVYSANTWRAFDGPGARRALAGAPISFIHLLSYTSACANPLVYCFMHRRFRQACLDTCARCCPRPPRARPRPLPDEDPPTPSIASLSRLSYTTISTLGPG
Source text: CCK-B Receptor (CCK-B R) Efficacy Assay:
To test binding and activation of CCK-B R we produced stable cell lines expressing one of the human or mouse CCK receptors in a manner similar to that for production of the hGLP-1 R cell lines were generated (vide supra). In brief, we used HEK293 cells for transfection of the cDNA for human or mouse CCK-A R or CCK-B R [hCCK-A R (gene identity: L19315), hCCK-B R (NM_176875), mCCK-A R (NM_009827) and mCCK-B R (NM_007627)] all cloned into the transfection plasmid pIRESneo2dNGFR. The cells were grown according to standard protocol in growth medium and transfected with the plasmids using Lipofectamin (Invitrogen). The cells stably expressing CCK receptors were selected using G418 in the growth medium (only cells that have taken up and incorporated the cDNA expression plasmid survive) and propagated. Stocks of cells were frozen for later use.
In vitro effects of peptide conjugates of the invention were estimated by measuring p-ERK (using the AlphaScreen™ SureFire p-ERK assay) in HEK293 cells stably expressing the human and mouse CCK-B R (high-affinity Gastrin receptor), respectively. The Gastrin receptor efficacy assays (AlphaScreen™ SureFire p-ERK assay) were performed as follows:
The CCK-B R expressing cells in question were seeded at 20,000 cells/well in 100 μl growth medium [DMEM, 10% FCS, Penicillin (100 IU/ml), Streptomycin (100 μg/ml)] in a 96-well plate coated with poly-D-lysine. The cells were incubated in an incubator (37° C., 5% […]) for two days.
The growth medium was changed to 80 μl of serum-free medium [DMEM, Penicillin (100 IU/ml), Streptomycin (100 μg/ml)] per well, and incubation of the cells was continued for 19 hours in the incubator (37° C., 5% CO2).
• 1. After 19 hours, 20 μl of serum-free medium containing one of 5 different concentrations of peptide conjugate was added (performed in triplicate for each concentration), and the cells were incubated for 5 min. at room temperature. • 2. The stimulation medium was discarded by quickly turning the plate upside down, and 60 μl 1× lysis buffer (from the SureFire assay kit) was added per well. • 3. The plate was shaken on a plate-shaker for 5 min and then placed on ice. • 4. SureFire P-ERK assay: 4 μl of each supernatant was transferred to a 384 well proxiplate (Perkin Elmer). • 5. 4 μl of each of the two control lysates (unstimulated and stimulated) were added to the proxiplate in duplicate. • 6. […] 7 μl of the latter reaction buffer+activation buffer+beads per well were added in the proxiplate, the mix being resuspended carefully before addition to the wells. • 7. The plate was incubated for 2 hours in a dark box in a 22° C. incubator. • 8. The plate was analyzed on an Envision™ light-emission plate reader (Perkin-Elmer) using the appropriate reading program (Perkin-Elmer).

human CCK-B R = biological target: T3, human CCK-B R (Homo sapiens, UniProt P32239); experiment: Human CCK-B receptor efficacy assay (AlphaScreen SureFire p-ERK); format: cell-based; details: Table 1; HEK293 cells expressing human CCK-B R, p-ERK; read-out: hCCK-B R EC50
T3 construct: expressed in transfected cells
T3 sequence (P32239 1-447): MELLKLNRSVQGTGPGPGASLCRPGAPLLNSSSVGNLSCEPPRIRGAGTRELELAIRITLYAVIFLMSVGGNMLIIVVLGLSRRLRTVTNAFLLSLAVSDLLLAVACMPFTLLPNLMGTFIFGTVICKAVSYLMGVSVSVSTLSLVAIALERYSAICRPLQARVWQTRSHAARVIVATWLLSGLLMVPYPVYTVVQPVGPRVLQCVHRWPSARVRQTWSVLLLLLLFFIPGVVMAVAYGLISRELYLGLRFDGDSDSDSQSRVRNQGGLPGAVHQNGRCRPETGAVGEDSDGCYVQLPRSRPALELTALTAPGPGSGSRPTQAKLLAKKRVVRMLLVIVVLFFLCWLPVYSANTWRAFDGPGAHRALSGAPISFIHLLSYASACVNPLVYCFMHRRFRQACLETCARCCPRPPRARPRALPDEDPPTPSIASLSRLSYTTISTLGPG

in vivo = experiment: in vivo; parameters: species or system C57Bl mice; details: mouse, sc, 100 nmol/kg
Experimental: Two C57Bl mice were given a single subcutaneous dose of 100 nmol/kg of each peptide. […] At each time point, samples from two mice were taken. Plasma samples were analyzed after solid phase extraction (SPE) by liquid chromatography mass spectrometry (LC-MS/MS).

[1] = Table 1, HEK293 cells expressing human GLP-1 R, cAMP

Molecule: H-HAEGTFTSDVSSYLEGQAAKEFIAWLVKGRAAAQGPWLEEEEEAYGWLDF-NH2 [Compound 39, GLP-1(7-36)-AAA-[Gln1,Leu15]Gastrin17]
- pEC50 (human GLP-1 R; [1]): 9.94
- pEC50 (human GLP-1 R; Table 3): 10.47
- pEC50 (mouse CCK-B R): 7.27
- pEC50 (human CCK-B R): 7.73

Molecule: H-HAEGTFTSDVSSYLEGQAAKEFIAWLVKGRSKKQGPWLEEEEEAYGWLDF-NH2 [Compound 40, GLP-1(7-36)-SKK-[Gln1,Leu15]Gastrin17]
- pEC50 (human GLP-1 R; [1]): 9.94
- pEC50 (human GLP-1 R; Table 3): 10.51
- pEC50 (mouse CCK-B R): 7.23
- pEC50 (human CCK-B R): 7.81

Molecule: H-HAEGTFTSDVSSYLEGQAAKEFIAWLVKGRKQGPWLEEEEEAYGWLDF-NH2 [Compound 38, GLP-1(7-36)-K-[Gln1,Leu15]Gastrin17]
- pEC50 (human GLP-1 R; [1]): 10.07
- pEC50 (human GLP-1 R; Table 3): 10.52
- pEC50 (mouse CCK-B R): 6.94
- pEC50 (human CCK-B R): 7.11

Molecule: CC[C@H](C)[C@H](NC(=O)[C@H](Cc1ccccc1)NC(=O)[C@H](CC(C)C)NC(=O)[C@H](CCCNC(=N)N)NC(=O)[C@@H](NC(=O)[C@H](C)NC(=O)[C@H](CCC(=O)O)NC(=O)[C@H](CCC(=O)O)NC(=O)[C@H](CCC(=O)O)NC(=O)[C@H](CC(C)C)NC(=O)[C@H](Cc1ccc(O)cc1)NC(=O)[C@H](CCCCN)NC(=O)[C@H](CO)NC(=O)[C@H](CC(C)C)NC(=O)[C@H](CC(=O)O)NC(=O)[C@H](CO)NC(=O)[C@@H](NC(=O)[C@H](Cc1ccccc1)NC(=O)[C@@H](NC(=O)CNC(=O)[C@H](CCC(=O)O)NC(=O)CNC(=O)[C@@H](N)Cc1c[nH]cn1)[C@@H](C)O)[C@@H](C)O)C(C)C)C(=O)N[C@@H](CCC(=O)O)C(=O)N[C@@H](Cc1ccccc1)C(=O)N[C@@H](CC(C)C)C(=O)N[C@@H](CCCCN)C(=O)NCCOCCOCC(=O)NCCOCCOCC(=O)N[C@@H](Cc1ccc(O)cc1)C(=O)NCC(=O)N[C@@H](Cc1c[nH]c2ccccc12)C(=O)N[C@@H](CC(C)C)C(=O)N[C@@H](CC(=O)O)C(=O)N[C@@H](Cc1ccccc1)C(N)=O [Compound 77, [Tyr13,Leu14,Phe25]Exendin-4(1-27)-Peg3-Peg3-[Leu4]Gastrin6] (H-HGEGTFTSDLSKYLEEEAVRLFIEFLK[AEEA][AEEA]YGWLDF-NH2)
- half-life (in vivo; C57Bl): 3.1 h
- Half-life and exposure (in words) (in vivo): superior to the rest
- pEC50 (human GLP-1 R; Table 2): 10.36

Molecule: CC[C@H](C)[C@H](NC(=O)[C@H](Cc1ccccc1)NC(=O)[C@H](CCC(=O)O)NC(=O)[C@H](CCCCN)NC(=O)[C@H](C)NC(=O)[C@H](C)NC(=O)[C@H](CCC(N)=O)NC(=O)CNC(=O)[C@H](CCC(=O)O)NC(=O)[C@H](CC(C)C)NC(=O)[C@H](Cc1ccc(O)cc1)NC(=O)[C@H](CO)NC(=O)[C@H](CO)NC(=O)[C@@H](NC(=O)[C@H](CC(=O)O)NC(=O)[C@H](CO)NC(=O)[C@@H](NC(=O)[C@H](Cc1ccccc1)NC(=O)[C@@H](NC(=O)CNC(=O)[C@H](CCC(=O)O)NC(=O)[C@H](C)NC(=O)[C@@H](N)Cc1c[nH]cn1)[C@@H](C)O)[C@@H](C)O)C(C)C)C(=O)N[C@@H](C)C(=O)N[C@@H](Cc1c[nH]c2ccccc12)C(=O)N[C@@H](CC(C)C)C(=O)N[C@H](C(=O)N[C@@H](CCCCN)C(=O)NCC(=O)N[C@@H](CCCNC(=N)N)C(=O)NCCOCCOCC(=O)NCCOCCOCC(=O)N[C@@H](CCC(N)=O)C(=O)NCC(=O)N1CCC[C@H]1C(=O)N[C@@H](Cc1c[nH]c2ccccc12)C(=O)N[C@@H](CC(C)C)C(=O)N[C@@H](CCC(=O)O)C(=O)N[C@@H](CCC(=O)O)C(=O)N[C@@H](CCC(=O)O)C(=O)N[C@@H](CCC(=O)O)C(=O)N[C@@H](CCC(=O)O)C(=O)N[C@@H](C)C(=O)N[C@@H](Cc1ccc(O)cc1)C(=O)NCC(=O)N[C@@H](Cc1c[nH]c2ccccc12)C(=O)N[C@@H](CC(C)C)C(=O)N[C@@H](CC(=O)O)C(=O)N[C@@H](Cc1ccccc1)C(N)=O)C(C)C [Compound 42, GLP-1(7-36)-Peg3-Peg3-[Gln1,Leu15]Gastrin17]
- pEC50 (mouse CCK-B R): 7.23
- pEC50 (human CCK-B R): 8.09

Molecule: CC[C@H](C)[C@H](NC(=O)[C@H](Cc1ccccc1)NC(=O)[C@H](CCC(=O)O)NC(=O)[C@H](CCCCN)NC(=O)[C@H](C)NC(=O)[C@H](C)NC(=O)[C@H](CCC(N)=O)NC(=O)CNC(=O)[C@H](CCC(=O)O)NC(=O)[C@H](CC(C)C)NC(=O)[C@H](Cc1ccc(O)cc1)NC(=O)[C@H](CO)NC(=O)[C@H](CO)NC(=O)[C@@H](NC(=O)[C@H](CC(=O)O)NC(=O)[C@H](CO)NC(=O)[C@@H](NC(=O)[C@H](Cc1ccccc1)NC(=O)[C@@H](NC(=O)CNC(=O)[C@H](CCC(=O)O)NC(=O)[C@H](C)NC(=O)[C@@H](N)Cc1c[nH]cn1)[C@@H](C)O)[C@@H](C)O)C(C)C)C(=O)N[C@@H](C)C(=O)N[C@@H](Cc1c[nH]c2ccccc12)C(=O)N[C@@H](CC(C)C)C(=O)N[C@H](C(=O)N[C@@H](CCCCN)C(=O)NCC(=O)N[C@@H](CCCNC(=N)N)C(=O)NCCCCCCCC(=O)NCCCCCCCC(=O)N[C@@H](CCC(N)=O)C(=O)NCC(=O)N1CCC[C@H]1C(=O)N[C@@H](Cc1c[nH]c2ccccc12)C(=O)N[C@@H](CC(C)C)C(=O)N[C@@H](CCC(=O)O)C(=O)N[C@@H](CCC(=O)O)C(=O)N[C@@H](CCC(=O)O)C(=O)N[C@@H](CCC(=O)O)C(=O)N[C@@H](CCC(=O)O)C(=O)N[C@@H](C)C(=O)N[C@@H](Cc1ccc(O)cc1)C(=O)NCC(=O)N[C@@H](Cc1c[nH]c2ccccc12)C(=O)N[C@@H](CC(C)C)C(=O)N[C@@H](CC(=O)O)C(=O)N[C@@H](Cc1ccccc1)C(N)=O)C(C)C [Compound 45, GLP-1(7-36)-8Aoc-8Aoc-[Gln1,Leu15]Gastrin17]
- pEC50 (mouse CCK-B R): 7.15
- pEC50 (human CCK-B R): 7.89

Molecule: H-HAEGTFTSDVSSYLEGQAAKEFIAWLVKGRQGPWLEEEEEAYGWLDF-NH2 [Compound 37, GLP-1(7-36)-[Gln1,Leu15]Gastrin17]
- pEC50 (human GLP-1 R; [1]): 9.84
- pEC50 (human GLP-1 R; Table 3): 10.52
- pEC50 (mouse CCK-B R): 7.14
- pEC50 (human CCK-B R): 7.59
